Columns and labels:
[1] = test system: ileum of a cavy (BaCl2 spasm); assay: Antispastic activity in vitro, Magnus method, cavy ileum stimulated with BaCl2; assay type: cell-based; settings: ratio to papaverine = 1; Table 1; 37°
Procedure: C. The method in vitro is that of Magnus, with the ileum of the cavy, and is in common use for all evaluations. It consists of extracting the ileum from the cavy and placing it in a receptacle which contains nutritive liquid, suitably oxygenated, and registering the movements of the organ which remains alive for several hours if maintained at a temperature of 37°. According to the traditional method followed by us, BaCl2 is put into the bath as a spasmisant: the reaction is a violent contraction of the organ. This contraction can be prevented by adding beforehand pharmaceuticals which inhibit spasms, and in this case our compounds.
The values recorded are expressed as relation between papaverine and the ED50 of our compounds. (As is known, the ED50 is the dose which results in a 50% reduction in spastic contraction).
E. I.T.2 is the therapeutic index under the profile of the antispastic activity in vitro and is given by the product between the in vitro antispastic activity index (column 4) and the corresponding DL50 (column 2).

[2] = test system: rat; assay: Acute toxicity (DL50) i.v. in rat; assay type: in vivo; settings: dose causing death in 50% of the animals
Procedure: (§1) In this table (n. 1) there are recorded the compounds described in the examples with their relative serial numbers, the acute toxicity, the antispastic activity observed in two experimental tests, one "in vivo" and one "in vitro". There are moreover recorded two therapeutic indices which take account of the toxicity of these compounds in relation to their in vivo and in vitro activity. More precisely:
(§2) A. DL50 which, as is known, is the quantity of the substance expressed in mg/kg of animal weight, capable of causing death in 50% of the animals treated.

[3] = test system: intestinal transit of the charcoal; assay: Vegetable carbon (charcoal) intestinal transit test in vivo; design: species or system rat; settings: i.v., rat, charcoal test, 2 hours; for ED50: Rattus norvegicus, iv, 2 h, read-out: Antisp. activity in transit test: ED50
Procedure: B. The vegetable carbon method in vivo (charcoal method) which consists of administering by oral means to rats, which have fasted for 24 hours, 0.3ml/per rate of a mixture consisting of: 10g of charcoal and 5 g of gum arabic suspended in a volume of 100 cc of H2 O as well as at the same time the substance being studied, accordingly as desired, generally i.v., s.c., oral. After two hours the animals are killed and those are taken to be negative in which the charcoal has reached the first portion of the colon and the others positive, in the sense that the substance administered has slowed down the intestinal transit of the charcoal.
In effect the animals treated with a physiological solution (checks) are all negative after two hours.
D. I.T.1 is the therapeutic index under the profile of the antispastic activity in vivo, and it is obtained by recording the DL50 (column 2) with the ED50 of the charcoal test (column 3).

[4] = Acute toxicity (DL50) i.v. in rat; assay type: in vivo; settings: in vivo, iv, dose causing death in 50% of the animals
Procedure: as §1, §2

[5] = test system: urinary bladder of a rat; assay: Urinary bladder movement of anaesthetised rat in vivo
Excerpt: The in vivo evaluation was made upon the urinary bladder of a rat anaesthetised and placed in an environment heated to the animals body temperature whilst the bladder which is exposed is linked to a system which registers its movement. The pharmaceutilcals were given to the animals by intravenous means.

Row | Compound | Antisp. activity in vitro on the ileum of a cavy by Stim. BaCl2: ED50 pap./ED50 CR [1] | DL50 in a rat [2] | Antisp. activity in transit test: ED50 [3] | Antisp. activity in transit test: ED50 ([3]; 120 min) | LD50 [4] | ED50 [3] | Urinary sac of rat in vivo ED50 ([5]; intravenous, anaesthetised rat) | activity in the urinary tract tests ([5]; statement on the bladder and ureter tests of Table 3)
1 | CCCCCCNC(=O)C(Cc1ccc(OCCN2CCCC2)cc1)NC(=O)c1ccc(C)cc1 (racemic) [CR 826, 0-(2-pyrrolidil-N'-ethyl)-N-toluoyl-DL-tyrosil-n-hexylamide] | 1.2 | 41 mg/kg | 17.0 mg/kg |  |  |  |  | 
2 | O-(2-diisopropylamino-ethyl)-N-toluoyl-DL-tyrosil-n-butylamide [CR 709] |  | 40 mg/kg | 36.1 mg/kg |  |  |  |  | 
3 | CCCCN(CCCC)C(=O)C(Cc1ccc(OCCCN2CCN(C)CC2)cc1)NC(=O)c1ccccc1Cl (racemic) [CR 731, O-[3-(N"-methyl-piperazine)-N'-propyl]-N-(o-chloro-benzoyl)-DL-tyrosil-di-n-butylamide] | 1.75 | 61 mg/kg | 39.4 mg/kg |  |  |  |  | 
4 | CCCN(CCC)C(=O)C(Cc1ccc(OCCN(CC)CC)cc1)NC(=O)OCc1ccccc1 [CR 627, O-(2-diethylamino-ethyl)-N-carbobenzoxy-D-tyrosil-di-n-propylamide] | 1.44 | 34.0 mg/kg |  | 20.8 mg/kg |  |  |  | 
5 | CCCN(CCC)C(=O)C(Cc1ccc(OCCN2CCCC2)cc1)NC(=O)c1ccc(C)cc1 (racemic) [CR 650, O-(2-pyrrolidil-N'-ethyl)-N-toluoyl-DL-tyrosil-di-n-propylamide] | 1.17 | 17.5 mg/kg | 18.4 mg/kg |  |  |  |  | 
6 | CCCN(CCC)C(=O)C(Cc1ccc(OCCN(C)C)cc1)NC(=O)c1ccc(C)cc1 (racemic) [CR 615, O-(2-dimethylamino-ethyl)-N-toluoyl-DL-tyrosil-di-n-propylamide] | 0.69 | 48.1 mg/kg | inactive |  |  |  |  | 
7 | CCCN(CCC)C(=O)C(Cc1ccc(OCCCN(C)C)cc1)NC(=O)c1ccccc1 (racemic) [CR 607, O-(3-dimethylamino-propyl)-N-benzoyl-DL-tyrosil-di-n-propylamide] | 0.41 | 32.4 mg/kg |  | 26.7 mg/kg |  |  |  | 
8 | CCCN(CCC)C(=O)C(Cc1ccc(OCCN(CC)CC)cc1)NC(=O)c1ccc(C)cc1 (racemic) [CR 807, O-(2-diethylamino-ethyl)-N-toluoyl-DL-tyrosil-di-n-propylamide] | 0.34 | 31.5 mg/kg | 21 mg/kg |  |  |  |  | 
9 | O-(3-pyrrolidil-N'-propyl)-N-toluoyl-DL-tyrosil-n-butylamide [CR 797] | 1.32 | 20.6 mg/kg | 12.0 mg/kg |  |  |  |  | 
10 | CCCCNC(=O)C(Cc1ccc(OCCN2CCN(C)CC2)cc1)NC(=O)c1ccc(Cl)cc1 (racemic) [CR 730, O-[2-(N"-methyl-piperazine)-N'-ethyl]-N-(p-chloro-benzoyl)-DL-tyrosil-n-butylamide] | 0.99 |  |  |  | 50 mg/kg | 30.2 mg/kg |  | 
11 | CCCC[N+]1(C)C2CC(OC(=O)C(CO)c3ccccc3)CC1C1OC12 (stereo not shown) [Joscina-N-butyl-bromide] |  |  |  |  |  |  | inactive | inactive
12 | CCCN(CCC)C(=O)C(Cc1ccc(OCCN(CC)CC)cc1)NC(=O)c1ccc(C)c(C)c1 (racemic) [CR 632, O-(2-diethylamino-ethyl)-N-(3,4-di-methyl-benzoyl)-DL-tyrosil-di-n-propylamide] | 0.40 |  |  |  | 38.1 mg/kg | 26 mg/kg |  | 
13 | CCCN(CCC)C(=O)C(Cc1ccc(OCCN(C)C)cc1)NC(=O)c1ccccc1 (racemic) [CR 592, O-(2dimethylamino-ethyl)-N-benzol-DL-Tyrosil-di-n-propilamide] | 0.25 |  |  |  | 58.1 mg/kg | 47.5 mg/kg |  | 
14 | CCCN(CCC)C(=O)C(Cc1ccc(OCCN(C(C)C)C(C)C)cc1)NC(=O)c1ccccc1 (racemic) [CR 624, O-(2-di-isopropylamino-ethyl)-N-benzoyl-DL-tyrosil-di-n-propylamide] | 1.12 |  | inactive |  | 24.4 mg/kg |  |  | 
15 | CCCCCCNC(=O)C(Cc1ccc(OCCN2CCCC2)cc1)NC(=O)c1ccccc1 (racemic) [CR 825, O-(2-pyrrolidil-N'-ethyl)-N-benzoyl-DL-tyrosil-n-hexylamide] | 1.8 |  |  |  | 42 mg/kg | 14.8 mg/kg |  | 
16 | CCCN(CCC)C(=O)C(Cc1ccc(OCCN(CC)CC)cc1)NC(=O)c1ccc(Br)cc1 (racemic) [CR 631, O-(2-diethylamino-ethyl)-N-(p-bromobenzoyl)-DL-tyrosil-din-propylamide] | 1.22 |  |  |  | 60.2 mg/kg | 40.4 mg/kg |  | 
17 | CCCN(CCC)C(=O)C(Cc1ccc(OCCN2CCN(C)CC2)cc1)NC(=O)c1ccc(Cl)cc1 (racemic) [CR 733, O-[2'-(N"-methyl-piperazine)-N'-ethyl]-N-(p-chloro-benzoyl)-DL-tyrosil-di-n-propylamide] | 1.31 |  |  |  | 43.5 mg/kg | 16.7 mg/kg |  | 
18 | CCCN(CCC)C(=O)C(Cc1ccc(OCCN(CC)CC)cc1)NC(=O)OCc1ccccc1 (racemic) [CR 832, O-(2-diethylamino-ethyl)-N-carbobenzoxy-DL-tyrosil-di-n-propylamide] | 1.40 |  |  |  | 32.4 mg/kg | 16.3 mg/kg |  | 
19 | CN(C)CCOc1ccc(CC(NC(=O)c2ccccc2)C(=O)NCc2ccccc2)cc1 (racemic) [CR 616, O-(2-dimethylamino-ethyl)-N-benzoyl-DL-tyrosil-benzylamide] | 0.82 |  | inactive |  | 73.6 mg/kg |  |  | 
20 | CCCN(CCC)C(=O)C(Cc1ccc(OCCN(C(C)C)C(C)C)cc1)NC(=O)c1ccc(Cl)cc1 (racemic) [CR 727, O-(2'-di-isopropylamino-ethyl)-N-(p-chloro-benzoyl)-DL-tyrosil-di-n-propylamide] | 1.52 |  |  |  | 26.3 mg/kg | 24.9 mg/kg |  | 
21 | CCCCNC(=O)C(Cc1ccc(OCCCN2CCN(C)CC2)cc1)NC(=O)c1ccc(Cl)cc1 (racemic) [CR 705, O-[3-(N"-methyl-piperazine)-N'-propyl]-N-(p-chloro-benzoyl)-DL-tyrosil-n-butylamide] | 1.57 |  |  |  | 80 mg/kg | 31 mg/kg |  | 
22 | CCCCNC(=O)C(Cc1ccc(OCCN(CC)CC)cc1)NC(=O)c1ccccc1 (racemic) [CR 786, O-(2-diethylamine-ethyl)-N-benzoyl-DL-tyrosil-n-butylamide] | 0.17 |  |  |  | 38 mg/kg | 34.3 mg/kg |  | 
23 | CCCN(CCC)C(=O)C(Cc1ccc(OCCN(CC)CC)cc1)NC(=O)c1ccc(C(F)(F)F)cc1 (racemic) [CR 635, O-(2-diethylamino-ethyl)-N-[p-(trifluoro-methyl)-benzoyl]-DL-tyrosil-di-n-p ropylamide] | 0.95 |  |  |  | 38.7 mg/kg | 25.6 mg/kg |  | 
24 | CCCN(CCC)C(=O)C(Cc1ccc(OCCN(CC)CC)cc1)NC(=O)OCc1ccccc1 [CR 830, O-(2-diethylamino-ethyl)-N-carbobenzoxy-L-tyrosil-di-n-propylamide] | 1.49 |  |  |  | 31.5 mg/kg | 17.3 mg/kg |  | 
25 | CCCCNC(=O)C(Cc1ccc(OCCCN2CCN(C)CC2)cc1)NC(=O)c1ccccc1 (racemic) [CR 702, O-[3-(N"-methyl-piperazine)-N'-propyl]-N-benzoyl-DL-tyrosil-n-butylamide] | 0.11 |  |  |  | 81.4 mg/kg | 62.5 mg/kg |  | 
